One assay concerns the target T1, Estrogen receptor (Homo sapiens, UniProt P03372).
T1 sequence (P03372 whole entry): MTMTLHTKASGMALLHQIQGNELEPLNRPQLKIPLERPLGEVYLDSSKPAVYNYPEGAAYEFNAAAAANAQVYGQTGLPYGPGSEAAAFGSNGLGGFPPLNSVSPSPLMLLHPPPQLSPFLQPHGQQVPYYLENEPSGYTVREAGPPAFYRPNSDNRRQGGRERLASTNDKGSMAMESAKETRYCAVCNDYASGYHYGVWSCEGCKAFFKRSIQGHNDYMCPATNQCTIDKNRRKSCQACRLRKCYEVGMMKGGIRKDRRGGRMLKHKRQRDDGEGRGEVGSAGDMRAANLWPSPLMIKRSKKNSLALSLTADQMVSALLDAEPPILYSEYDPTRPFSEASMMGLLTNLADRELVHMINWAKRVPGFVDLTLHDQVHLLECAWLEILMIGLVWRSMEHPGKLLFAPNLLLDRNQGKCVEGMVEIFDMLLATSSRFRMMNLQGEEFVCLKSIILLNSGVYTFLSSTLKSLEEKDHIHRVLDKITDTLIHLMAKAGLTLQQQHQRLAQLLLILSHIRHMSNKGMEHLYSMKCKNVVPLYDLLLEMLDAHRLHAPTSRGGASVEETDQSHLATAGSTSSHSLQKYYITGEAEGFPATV

Assay [1] concerns the target T2, Estrogen receptor beta (Homo sapiens, UniProt Q92731).
Assay [2] addresses T2, Estrogen receptor beta. As to the kind of experiment: Agonist activity at ER-beta (unknown origin) transfected in HEK293T cells after 24 hrs by Steady-Glo luciferase reporter gene assay relative to estradiol. The format is cell-based. Conditions: HEK-293T. A general note: Reporter assays use an easily measured gene product as a stand-in for the process of interest.
Assay [3] deals with T2, Estrogen receptor beta. Briefly: Agonist activity at human ER-beta transfected in human 293 cells assessed as ALP reporter protein expression after 72 hrs by chemiluminescence assay. The format is cell-based.

Structures are written as SMILES. Some results are limits rather than exact numbers.

T2 sequence (Q92731 whole entry): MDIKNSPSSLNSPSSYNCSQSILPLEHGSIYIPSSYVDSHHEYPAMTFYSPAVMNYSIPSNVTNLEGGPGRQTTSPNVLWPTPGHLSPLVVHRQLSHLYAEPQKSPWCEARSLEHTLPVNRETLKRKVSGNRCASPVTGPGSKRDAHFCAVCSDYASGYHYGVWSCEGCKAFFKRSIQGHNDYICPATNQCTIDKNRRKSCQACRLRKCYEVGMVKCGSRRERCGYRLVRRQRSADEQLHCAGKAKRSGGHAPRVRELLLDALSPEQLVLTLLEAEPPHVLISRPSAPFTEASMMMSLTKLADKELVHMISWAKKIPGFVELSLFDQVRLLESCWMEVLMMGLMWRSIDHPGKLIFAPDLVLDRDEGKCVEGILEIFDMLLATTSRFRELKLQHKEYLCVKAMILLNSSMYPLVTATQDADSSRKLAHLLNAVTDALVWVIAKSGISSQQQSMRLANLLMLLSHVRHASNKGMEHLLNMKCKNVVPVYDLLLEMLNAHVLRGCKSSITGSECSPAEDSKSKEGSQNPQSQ

The term EC50 denotes the concentration giving half of the maximal effect. With `C[C@]12CC[C@H](c3ccc(O)cc3)C[C@H]1CCC2=O`, the EC50 is > 10000 nM at Estrogen receptor and 251 nM at Estrogen receptor beta [1]. Moreover, on Estrogen receptor beta [2], the Efficacy amounted to 148%.
The corresponding values for `C[C@]12CCC(c3ccc(O)cc3)C[C@H]1CC[C@@H]2O` (some centres undefined) are 31.6 nM, 0.398 nM and 127%.
For the compound `C[C@]12CC[C@H](c3ccc(O)cc3)C[C@H]1C[C@H](O)[C@H]2O`, the EC50 is 10000 nM at Estrogen receptor and 20 nM at Estrogen receptor beta [1]. On Estrogen receptor beta [2], this compound gave an Efficacy of 108%.
For `C[C@]12CC[C@@H](c3ccc(O)cc3)C[C@H]1CCC2=O`, the EC50 on Estrogen receptor is 7940 nM; on Estrogen receptor beta [1], 126 nM. The compound further registered an Efficacy on Estrogen receptor beta [2] of 144%.
Take `C[C@]12CC[C@@H]3c4ccc(O)cc4CC[C@H]3[C@@H]1C[C@H](O)[C@H]2O`: the EC50 at Estrogen receptor beta [3] amounted to 11 nM.
With `C[C@]12CC[C@@H]3c4ccc(O)cc4CC[C@H]3[C@@H]1C[C@@H](O)[C@@H]2O` [ESTRIOL], the EC50 on Estrogen receptor beta [1] is 0.126 nM.
